Data on 48 compounds can be found in US9226500B2, “Pesticidal compositions and processes related thereto” (Dow AgroSciences LLC, priority 2012, dated 2016).

For this assay, the system named is Beet Armyworm (Spodoptera exigua). Kind of assay: Bioassay on Beet Armyworm (BAW), 128-well diet tray assay. It is filed as in vivo. Conditions: Table 3, Assays Results Part 1. The procedure:
Certain molecules disclosed in this document were tested against BAW, CEW and CL using procedures described in the following examples. In the reporting of the results, the “BAW & CEW & CL Rating Table” was used (See Table Section).
Bioassays on BAW (Spodoptera exigua)
Bioassays on BAW were conducted using a 128-well diet tray assay. One to five second instar BAW larvae were placed in each well (3 mL) of the diet tray that had been previously filled with 1 mL of artificial diet to which 50 μg/cm^2 of the test compound (dissolved in 50 μL of 90:10 acetone-water mixture) had been applied (to each of eight wells) and then allowed to dry. Trays were covered with a clear self-adhesive cover, and held at 25° C., 14:10 light-dark for five to seven days. Percent mortality was recorded for the larvae in each well; activity in the eight wells was then averaged. The results are indicated in the tables entitled “Table 3: Assay Results Part 1” and “Table 4: Assay Results Part 2” (See Table Section).
`O=C(NC1CCN(C2COC2)CC1)c1ccc(/C=C/C(c2cc(Cl)c(Cl)c(Cl)c2)C(F)(F)F)cc1Br` (stereo not drawn) [AC108]: the “BAW Rating” value is “B (More than 0-Less than 50)”.

For the compound `CONC(=O)CNC(=O)c1ccc(/C=C/C(c2cc(Cl)c(Cl)c(Cl)c2)C(F)(F)F)cc1Br` (stereo not drawn) [AC110], the “BAW Rating” value is listed as “A (50-100)”.

As to `C=CCNC(=O)CNC(=O)c1ccc(/C=C/C(c2cc(Cl)c(Cl)c(Cl)c2)C(F)(F)F)cc1Br` (stereo not drawn) [AC111], the “BAW Rating” value is “A (50-100)”.

Turning to `O=C(NCCc1ccc(Cl)nc1)c1ccc(/C=C/C(c2cc(Cl)c(Cl)c(Cl)c2)C(F)(F)F)cc1Br` (stereo not drawn) [AC113], the “BAW Rating” value is listed as “B (More than 0-Less than 50)”.

`O=C(NC1CCNCC1)c1ccc(/C=C/C(c2cc(Cl)c(Cl)c(Cl)c2)C(F)(F)F)cc1Br` (stereo not drawn) [AC114, (E)-2-Bromo-N-(piperidin-4-yl)-4-(4,4,4-trifluoro-3-(3,4,5-trichlorophenyl)but-1-en-1-yl)benzamide]: the “BAW Rating” value is given as “A (50-100)”.

In the case of `Cc1cc(/C=C/C(c2cc(Cl)cc(Cl)c2)C(F)(F)F)ccc1C(=S)NCc1ccc(Cl)nc1` (stereo not drawn) [AC115, (E)-N-((6-Chloropyridin-3-yl)methyl)-4-(3-(3,5-dichlorophenyl)-4,4,4-trifluorobut-1-en-1-yl)-2-methylbenzothioamide], the “BAW Rating” value was “A (50-100)”.

As to `Cc1cc(/C=C/C(c2cc(Cl)cc(Cl)c2)C(F)(F)F)ccc1C(=O)N(C)Cc1ccc(Cl)nc1` (stereo not drawn) [AC117], the “BAW Rating” value is on record as “A (50-100)”.

Take `Cc1cc(/C=C/C(c2cc(Cl)cc(Cl)c2)C(F)(F)F)ccc1C(=O)NCC1CCCO1` (stereo not drawn) [AC118]: the “BAW Rating” value is given as “A (50-100)”.

With `O=C(CC(F)(F)F)NC1CCCc2cc(/C=C/C(c3cc(Cl)c(Cl)c(Cl)c3)C(F)(F)F)ccc21` (stereo not drawn) [BC5], the “BAW Rating” value is “A (50-100)”.

Regarding `O=C(NC1CCc2cc(/C=C/C(c3cc(Cl)c(Cl)c(Cl)c3)C(F)(F)F)ccc21)C1CC1` (stereo not drawn) [BC6], the “BAW Rating” value is “A (50-100)”.

Take `O=C(NC1CCCc2cc(/C=C/C(c3cc(Cl)c(Cl)c(Cl)c3)C(F)(F)F)ccc21)C1CC1` (stereo not drawn) [BC7]: the “BAW Rating” value is given as “A (50-100)”.

`O=C(CC(F)(F)F)NC1CCc2cc(/C=C/C(c3cc(Cl)c(F)c(Cl)c3)C(F)(F)F)ccc21` (stereo not drawn) [BC8]: the “BAW Rating” value is on record as “A (50-100)”.

Regarding `O=C(Cc1ccc(Cl)nc1)NC1CCc2cc(/C=C/C(c3cc(Cl)c(F)c(Cl)c3)C(F)(F)F)ccc21` (stereo not drawn) [BC9], the “BAW Rating” value is recorded as “A (50-100)”.

Turning to `Fc1c(Cl)cc(C(/C=C/c2ccc3c(c2)CCC3NCCC(F)(F)F)C(F)(F)F)cc1Cl` (stereo not drawn) [BC10, (E)-5-(3-(3,5-Dichloro-4-fluorophenyl)-4,4,4-trifluorobut-1-en-1-yl)-N-(3,3,3-trifluoropropyl)-2,3-dihydro-1H-inden-1-amine], the “BAW Rating” value is reported as “A (50-100)”.

As for `O=C(CC(F)(F)F)NCC(=O)n1ccc2cc(/C=C/C(c3cc(Cl)c(F)c(Cl)c3)C(F)(F)F)ccc21` (stereo not drawn) [BC13, (E)-N-(2-(5-(3-(3,5-Dichloro-4-fluorophenyl)-4,4,4-trifluorobut-1-en-1-yl)-1H-indol-1-yl)-2-oxoethyl)-3,3,3-trifluoropropanamide], the “BAW Rating” value is given as “A (50-100)”.

Regarding `O=C(Cn1ncc2cc(/C=C/C(c3cc(Cl)c(F)c(Cl)c3)C(F)(F)F)ccc2c1=O)NCC(F)(F)F` (stereo not drawn) [BC14, (E)-2-(6-(3-(3,5-Dichloro-4-fluorophenyl)-4,4,4-trifluorobut-1-en-1-yl)-1-oxophthalazin-2(1H)-yl)-N-(2,2,2-trifluoroethyl)acetamide], the “BAW Rating” value is “A (50-100)”.

`O=C(NCc1ccc(/C=C/C(c2cc(Cl)cc(Cl)c2)C(F)(F)F)cc1)C1CC1` (stereo not drawn) [CC2]: the “BAW Rating” value is listed as “A (50-100)”.

In the case of `O=C(CC(F)(F)F)NCc1ccc(/C=C/C(c2cc(Cl)cc(Cl)c2)C(F)(F)F)cc1` (stereo not drawn) [CC3], the “BAW Rating” value is listed as “A (50-100)”.

For `CCC(=O)NCc1ccc(/C=C/C(c2cc(Cl)cc(Cl)c2)C(F)(F)F)cc1` (stereo not drawn) [CC4], the “BAW Rating” value is recorded as “A (50-100)”.

For the compound `O=C(NCc1ccc(/C=C/C(c2cc(Cl)c(Cl)c(Cl)c2)C(F)(F)F)cc1)C1CC1` (stereo not drawn) [CC5], the “BAW Rating” value was “A (50-100)”.

For the compound `O=C(CC(F)(F)F)NCc1ccc(/C=C/C(c2cc(Cl)c(Cl)c(Cl)c2)C(F)(F)F)cc1` (stereo not drawn) [CC6], the “BAW Rating” value is “A (50-100)”.

Turning to `CC(=O)NCc1ccc(/C=C/C(c2cc(Cl)cc(Cl)c2)C(F)(F)F)cc1Cl` (stereo not drawn) [CC7, (E)-N-(2-Chloro-4-(3-(3,5-dichlorophenyl)-4,4,4-trifluorobut-1-en-1-yl)benzyl)acetamide], the “BAW Rating” value is recorded as “A (50-100)”.

For `O=C(NCc1ccc(/C=C/C(c2cc(Cl)cc(Cl)c2)C(F)(F)F)cc1Cl)C1CC1` (stereo not drawn) [CC8], the “BAW Rating” value is “A (50-100)”.

Turning to `O=C(CC(F)(F)F)NCc1ccc(/C=C/C(c2cc(Cl)cc(Cl)c2)C(F)(F)F)cc1Cl` (stereo not drawn) [CC9], the “BAW Rating” value is “A (50-100)”.

For the compound `O=C(NCc1ccc(/C=C/C(c2cc(Cl)c(Cl)c(Cl)c2)C(F)(F)F)cc1Cl)C1CC1` (stereo not drawn) [CC11], the “BAW Rating” value was “A (50-100)”.

With `O=C(Cc1ccc(Cl)nc1)NCc1ccc(/C=C/C(c2cc(Cl)c(Cl)c(Cl)c2)C(F)(F)F)cc1Cl` (stereo not drawn) [CC14], the “BAW Rating” value is listed as “A (50-100)”.

For the compound `O=C(NCc1ccc(/C=C/C(c2cc(Cl)c(F)c(Cl)c2)C(F)(F)F)cc1Cl)C1CC1` (stereo not drawn) [CC15], the “BAW Rating” value is recorded as “A (50-100)”.

With `O=C(NCc1ccc(/C=C/C(c2ccc(Cl)c(Cl)c2)C(F)(F)F)cc1Cl)C1CC1` (stereo not drawn) [CC17], the “BAW Rating” value is “A (50-100)”.

With `O=C(CC(F)(F)F)NCc1ccc(/C=C/C(c2ccc(Cl)c(Cl)c2)C(F)(F)F)cc1Cl` (stereo not drawn) [CC18], the “BAW Rating” value is recorded as “A (50-100)”.

`CSCCC(=O)NCc1ccc(/C=C/C(c2cc(Cl)c(Cl)c(Cl)c2)C(F)(F)F)cc1Cl` (stereo not drawn) [CC19]: the “BAW Rating” value is “A (50-100)”.

Turning to `FC(F)(F)C(/C=C/c1ccc(CNC(=S)C2CC2)c(Cl)c1)c1cc(Cl)c(Cl)c(Cl)c1` (stereo not drawn) [CC20], the “BAW Rating” value was “A (50-100)”.

As to `O=C(NCc1ccc(/C=C/C(c2cc(Cl)cc(Cl)c2)C(F)(F)F)cc1C(F)(F)F)C1CC1` (stereo not drawn) [CC21], the “BAW Rating” value is “A (50-100)”.

With `O=C(NCc1ccc(/C=C/C(c2cc(Cl)c(Cl)c(Cl)c2)C(F)(F)F)cc1C(F)(F)F)C1CC1` (stereo not drawn) [CC22], the “BAW Rating” value is given as “A (50-100)”.

For the compound `O=C(CC(F)(F)F)NCc1ccc(/C=C/C(c2cc(Cl)c(Cl)c(Cl)c2)C(F)(F)F)cc1C(F)(F)F` (stereo not drawn) [CC24], the “BAW Rating” value is reported as “A (50-100)”.

Take `O=C(CC(F)(F)F)NCc1ccc(/C=C/C(c2cc(Cl)c(Cl)c(Cl)c2)C(F)(F)F)cc1Br` (stereo not drawn) [CC25]: the “BAW Rating” value is recorded as “A (50-100)”.

Consider `O=C(NCc1ccc(/C=C/C(c2cc(Cl)c(Cl)c(Cl)c2)C(F)(F)F)cc1Br)C1CC1` (stereo not drawn) [CC26], for which the “BAW Rating” value is “A (50-100)”.

For the compound `O=C(CC(F)(F)F)NCc1ccc(/C=C/C(c2cc(Cl)c(Cl)c(Cl)c2)C(F)(F)F)cc1F` (stereo not drawn) [CC27], the “BAW Rating” value was “A (50-100)”.

Regarding `O=C(NCc1ccc(/C=C/C(c2cc(Cl)c(Cl)c(Cl)c2)C(F)(F)F)cc1F)C1CC1` (stereo not drawn) [CC28], the “BAW Rating” value is on record as “A (50-100)”.

On to `O=C(C1CC1)N(Cc1ccccn1)Cc1ccc(/C=C/C(c2cc(Cl)c(Cl)c(Cl)c2)C(F)(F)F)cc1C(F)(F)F` (stereo not drawn) [CC29, (E)-N-(Pyridin-2-ylmethyl)-N-(4-(4,4,4-trifluoro-3-(3,4,5-trichlorophenyl)but-1-enyl)-2-(trifluoromethyl)benzyl)cyclopropanecarboxamide], for which the “BAW Rating” value was “A (50-100)”.

For the compound `CS(=O)(=O)CCC(=O)NCc1ccc(/C=C/C(c2cc(Cl)c(Cl)c(Cl)c2)C(F)(F)F)cc1Cl` (stereo not drawn) [CC30, (E)-N-(2-Chloro-4-(4,4,4-trifluoro-3-(3,4,5-trichlorophenyl)but-1-en-1-yl)benzyl)-3-(methylsulfonyl)propanamide], the “BAW Rating” value was “A (50-100)”.

Turning to `CCNC(=O)NCc1ccc(/C=C/C(c2cc(Cl)cc(Cl)c2)C(F)(F)F)cc1Cl` (stereo not drawn) [CC31, (E)-1-(2-Chloro-4-(3-(3,5-dichlorophenyl)-4,4,4-trifluorobut-1-en-1-yl)benzyl)-3-ethylurea], the “BAW Rating” value is on record as “B (More than 0-Less than 50)”.

As for `CCNC(=O)NCc1ccc(/C=C/C(c2cc(Cl)c(Cl)c(Cl)c2)C(F)(F)F)cc1C(F)(F)F` (stereo not drawn) [CC32], the “BAW Rating” value was “A (50-100)”.

Consider `CCNC(=O)NCc1ccc(/C=C/C(c2cc(Cl)c(Cl)c(Cl)c2)C(F)(F)F)cc1Br` (stereo not drawn) [CC33], for which the “BAW Rating” value is given as “A (50-100)”.

For the compound `O=C(NCc1ccc(/C=C/C(c2cc(Cl)c(Cl)c(Cl)c2)C(F)(F)F)cc1Cl)N1CCOCC1` (stereo not drawn) [CC34], the “BAW Rating” value is given as “A (50-100)”.

Take `CN(C)C(=O)NCc1ccc(/C=C/C(c2cc(Cl)c(Cl)c(Cl)c2)C(F)(F)F)cc1Cl` (stereo not drawn) [CC36, (E)-3-(2-Chloro-4-(4,4,4-trifluoro-3-(3,4,5-trichlorophenyl)but-1-en-1-yl)benzyl)-1,1-dimethylurea]: the “BAW Rating” value is “A (50-100)”.

Regarding `CCNC(=S)NCc1ccc(/C=C/C(c2cc(Cl)c(Cl)c(Cl)c2)C(F)(F)F)cc1Cl` (stereo not drawn) [CC37, (E)-1-(2-Chloro-4-(4,4,4-trifluoro-3-(3,4,5-trichlorophenyl)but-1-en-1-yl)benzyl)-3-ethylthiourea], the “BAW Rating” value was “A (50-100)”.

For the compound `C=CCNC(=S)NCc1ccc(/C=C/C(c2cc(Cl)c(Cl)c(Cl)c2)C(F)(F)F)cc1Cl` (stereo not drawn) [CC38], the “BAW Rating” value was “A (50-100)”.

With `FC(F)(F)C(/C=C/c1ccc(CNc2ccccn2)c(Cl)c1)c1cc(Cl)c(Cl)c(Cl)c1` (stereo not drawn) [CC43, (E)-N-(2-Chloro-4-(4,4,4-trifluoro-3-(3,4,5-trichlorophenyl)but-1-en-1-yl)benzyl)pyridin-2-amine], the “BAW Rating” value is “A (50-100)”.
